Consider 8 molecules from patent US6455535B1, “Substituted aminoquinazolinone (thione) derivatives or salts thereof, intermediates thereof, and pest controllers and a method for using the same” (Nihon Nohyaku Co., Ltd., priority 1999, dated 2002).

The subject of series [1] is greenhouse whitefly (Trialeurodes vaporariorum). As to the kind of experiment: Insecticidal test on greenhouse whitefly, tomato leaf spray (Test Example 3). In kind it is in vivo. The note with it: 100 ppm test liquid sprayed on tomato leaf, 20 adults inoculated; for mortality at 100 ppm: Trialeurodes vaporariorum, read-out: insecticidal effect rating (mortality of adults). On the procedure:
Insecticidal Test on Greenhouse Whitefly (Trialeurodes vaporariorum)
Each compounds of the present invention listed in Table 3 and Table 4 was dispersed in and diluted with water to prepare a test liquid containing 100 ppm of the test compound. By use of a spraygun, the test liquid was sprayed on the surface of a leaf of tomato plant put in a 20 ml-vial bottle containing water on a turn table. After air-dried, the leaf treated with the test liquid was put in a glass cylinder, and inoculated with 20 adults of greenhouse whitefly thereon. After the inoculation, the leaf was placed in a greenhouse, and the number of adults of greenhouse whitefly was counted. The mortality of the adults was calculated similar to that of conducted in Test Example 2, and the insecticidal effect of each one of the test compounds was evaluated by the method identical to Test Example 1.

Series [2] has as its system brown rice planthopper (Nilaparvata lugens). As to the kind of experiment: whole plant or invertebrate. In kind it is in vivo. The note with it: 192 h, rice seedlings immersed 30 seconds, 10 third-instar nymphs, eight days after inoculation, read-out: insecticidal effect rating (corrected larval mortality). An excerpt:
Insecticidal Effect on Brown Rice Planthopper (Nilaparvata lugens)
Each substituted aminoquinazolinone (thione) derivative of the general formula (I) or salt thereof of the present invention listed in Tables 3 and 4 was dispersed in and diluted with water to obtain a 500 ppm liquid chemical. Rice seedlings (cultivar: Nihonbare) were immersed in the liquid chemical for 30 seconds and air-dried, after which each seedling was placed in a glass test tube and inoculated with 10 third-instar nymphs of brown rice planthopper, and the test tube was pluged with a cotton plug. Eight days after the inoculation, the dead and alive were counted. The mortality was calculated by the following equation and the control effect was judged according to the criterion described below.
Corrected larval mortality (%)={(Ca/c−Ta/T)/Ca/c}×100
Ta: number of alive nymphs in treated groups
T: number of inoculated nymphs in treated groups
Ca: number of alive numphs in untreated groups
c: number of inoculated nymphs in untreated groups
Criterion: the same as in Test Example 1.

Regarding `O=C1Nc2ccc(-c3ccccc3)cc2CN1N=Cc1cccnc1` [compound 86], the “insecticidal effect rating (mortality of adults)” value (“insecticidal effect rating” below) in series [1] is “D or higher”.
For `O=C1Nc2ccc(OC(F)(F)F)cc2CN1/N=C/c1cccnc1` [Compound No. 30, 3-(3-pyridylmethylideneamino)-3,4-dihydro-6-trifluoromethoxy-2(1H)-quinazolinone], the mortality at 500 ppm in series [2] turned out to be 100%. The mortality at 100 ppm in series [1] amounted to 100%.
In the case of `O=C1Nc2ccc(I)cc2CN1N=Cc1cccnc1` [compound 10], in series [1], the “insecticidal effect rating” value is on record as “D or higher”.
Turning to `O=C1Nc2ccc(OC(F)F)cc2CN1N=Cc1cccnc1` [compound 38], the “insecticidal effect rating” value in series [1] is “D or higher”.
As to `O=C1Nc2ccc(OC(F)(F)F)cc2CN1NCc1cccnc1` [Compound No. 208, 3-(3-pyridylmethylamino)-3,4-dihydro-6-trifluoromethoxy-2(1H)-quinazolinone], the mortality at 500 ppm in series [2] was determined as 100%. In series [1], the mortality at 100 ppm was 100%.
Consider `CCOC(=O)c1ccc2c(c1)CN(N=Cc1cccnc1)C(=O)N2` [compound 78], for which the “insecticidal effect rating” value in series [1] was “D or higher”.
For the molecule `O=C1Nc2ccc(C(F)(F)F)cc2CN1N=Cc1cccnc1` [compound 14], in series [1], the “insecticidal effect rating” value is reported as “D or higher”.
Regarding `O=C1Nc2ccc(-c3ccc(Cl)cc3)cc2CN1N=Cc1cccnc1` [compound 90], the “insecticidal effect rating” value in series [1] is recorded as “D or higher”.

For orientation: mortality means the share of the test organisms that died.
